Measurements taken from patent publication US20120034162A1, “Fullerene Assisted Cell Penetrating Peptides” (William March Rice University, priority 2006, published 2012).
Entries after “also recorded” stand apart in the source; their conditions may differ. One block for each molecule: values may come before it. Primed or numbered codes have the meaning given here. Ends that are not written are not given here. Baa″ = fullerene (C60, Bucky) amino acid derivative of phenylalanine; Baa = not defined here

What was measured:
[1] = Antioxidant properties (IC50 determined by Csixty Inc. through an established method); format: biochemical
Text: A plot of inhibition as a function of concentration for peptide 27 is shown in FIG. 18 with a comparison of Baa and Trolox. […] It is unclear at the present time the reason for the slight reduction in activity between Baa and Baa-Glu-Glu-Glu-Glu-Gly-Gly-Gly-Ser-OH. Given that the peptide's aggregation in aqueous solution presumably results in the “Glu-Glu-Glu-Glu-Gly-Gly-Gly-Ser-OH” being exposed to the solution, the sequence could act as a buffer limiting electron transfer processes.

[2] = Peptide aggregation, particle size in solution by dynamic light scattering (DLS); format: physicochemical; settings: PBS buffer; for aggregate size, major (or single) component: 0.125-2.0 mg/mL
Method: (§1) Rink amide and Wang resin were obtained from Novabiochem, USA. Amino acids were purchased from Novabiochem and used as received. MALDI-TOF mass analysis was performed on a linear Protein-TOF Bruker instrument using sinipinic acid as the matrix. CD spectra were obtained on a Jasco J-700 dichrometer using 1 mm path-length quartz cells. Peptide solutions were 1.0 mg·mL^−1 solution in milliQ H2O or PBS buffer. In the case of peptides (21, 22 and 23), the pH was first adjusted to 10 to break up any aggregations and then adjusted by addition of 0.1 mM HCl until the desired pH was obtained. CD spectra were recorded in millidegrees and converted to residual molar ellipticity. TEM measurements were performed on a JEOL 2010 TEM at 200 kV. DLS Measurements were performed on the samples using an Brookhaven 90Plus submicron particle-size analyzer with HeNe laser (30 mW) that operates at […] wavelength.
With reference back to Table 1, in order to understand the intracellular transport of the FITC functionalized Baa-peptides, 25 and Baa-Lys(FITC)-NLS (26), their particle size in solution was determined by dynamic light scattering (DLS). Three series of solutions of 24, 25 and 26 in the range of 0.125-2.0 mg/mL was prepared by weighing method. PBS buffer prepared from HPLC grade water was used as solvent and was filtered through a […] cup filter (Millipore, Express).

[3] = system: MCF-7 breast cancer cells; assay: Cellular proliferation, CCK-8 assay; format: cell-based; settings: MCF-7, 48 h, concentration given with value
Method: (§2) Cellular proliferation studies. Cancer cells at 5×10^4 cells/well were plated in triplicate in standard flat-bottomed 96-well tissue culture plates in the presence of fullerene peptides in PBS buffer with a final volume of 100 μL. Unless otherwise indicated, cells were grown for 48 h at 37° C. in a CO2 incubator. Relative cell growth was determined by Cell Counting Kit-8 (CCK-8) cell proliferation assay as described by the manufacturer using an automated plate reader. Results were calculated in a blinded fashion and are the means of bi or triplicate determinations.
The effect of different Baa-peptide sequences on the cell viability of MCF-7 breast cancer cells was investigated to determine if the sequence has an effect rather than the presence of the C60. […] This is in agreement with the MTT cell viability test (see above). […] Clearly the sequence has a significant effect on the cell viability. However, it is worth noting that this may be due to either inherent differences in toxicity or differences in cellular uptake.

[4] = system: MDA-MB neoroblastoma cells; assay: Cellular proliferation, CCK-8 assay; format: cell-based; settings: 48 h
Method: as §2
A similar comparison has been made with MDA-MB neoroblastoma cells (FIG. 25) using H-Baa-Lys(FITC)-NLS (26), Baa-Penetratin (29) and Baa-Glu-Glu-Glu-Glu-Gly-Gly-Gly-Ser-OH (27). […] Given that both H-Baa-Lys(FITC)-NLS and Baa-Penetratin are cationic peptides which are readily taken up by the cells the cell inhibition cannot be a function of the uptake (i.e., intracellular concentration), but must also be dependent on the sequence.

[5] = Peptide secondary structure (CD) and appearance (TEM) as a function of pH; format: physicochemical; settings: for Secondary structure with decreasing pH: CD spectra; for Appearance / diameter of non-fibrous particles: TEM; for diameter of non-fibrous particles: micelles at pH 4 (21), precipitate particles at pH 6 and lower (22)
Method: as §1
Control of peptide secondary structure by fullerene amino acids. In an effort to understand the effect of the C60 substituents on the secondary structure of a peptide we have investigated two sequences and the position within a particular sequence. The well characterized model heptad peptides Glu-Ile-Ala-Gln-Leu-Glu-Tyr-Glu-Ile-Ser-Gln-Leu-Glu-Gln-NH2 (2HP, 22 in Table 1) […]NH2 (3HP, 23 in Table 1) were chosen because they are known to form fibers at pH below 7 concomitant with β-sheet formation. To investigate the effects of the presence and C60 on the conformation of the peptide the model peptide 2HP was prepared in which either tyrosine was replaced by Baa (21 in Table 1) or Baa was added to the C-terminus (22 in Table 1). The C-terminus derivative 23 was also prepared for 3HP.

[6] = system: IMR32 cancer cell line; assay: Cellular proliferation, CCK-8 assay; format: cell-based
Method: Cellular proliferation studies. Cancer cells at 5×10^4 cells/well were plated in triplicate in standard flat-bottomed 96-well tissue culture plates in the presence of fullerene peptides in PBS buffer with a final volume of 100 μL. Unless otherwise indicated, cells were grown for 48 h at 37° C. in a CO2 incubator. Relative cell growth was determined by Cell Counting Kit-8 (CCK-8) cell proliferation assay as described by the manufacturer using an automated plate reader. Results were calculated in a blinded fashion and are the means of bi or triplicate determinations. […] This difference is possibly because the relative propensity of Baa-2HP to precipitate under acidic conditions is less than that of Baa-3HP. Thus, the formation of aggregates of Baa-3HP would cause the inhibition of cell growth. However, we cannot discount alternative factors such as the sequence and its overall charge differences. For example, the strength of the aggregate may be greater for Baa-3HP than Baa-2HP due to the stronger self-assembly forces in 3HP.

[7] = format: in vitro ADME, bovine
Text: Peptide stability. In order to test the stability of the fullerene peptide linkage, samples of Baa-Lys(FITC)-Lys8-OH and H-Baa-Lys(FITC)-NLS were exposed to bovine plasma for up to 3 days and analyzed by HPLC.

[8] = Aggregate size and morphology by cryo-TEM; format: physicochemical; settings: 1.0 mg/mL in PBS buffer, pH 7
Method: To further examine the actual aggregate size and morphology, cryo-TEM experiments were performed for both peptides 25 and 26. The images were taken in the concentration of 1.0 mg/mL for both peptides. Samples for cryo-TEM studies were prepared by dipping a copper grid coated with amorphous carbon-holey film into the sample solution. The TEM images were mainly taken in the hole region of the TEM grid to minimize the artificial effect from the samples or ice. […] Both peptides forms spherical and ellipsoidal clusters, with an average aggregate sizes of 40-80 nm for 25 and 50-150 nm for 26, which are generally smaller than the diameters observed by DLS. Consistent with the DLS study, Baa-Lys(FITC)-Lys8-OH (25) are more uniform in size than Baa-Lys(FITC)-NLS (26). FIGS. 9a and 9b show the vitreous ice cryo-TEM micrograph of the large aggregates (9a) and small aggregates (9b) formed by Baa-Lys(FITC)-Lys8-OH in PBS buffer (1 mg/mL at pH=7). There are two dominant groups in size for 25; one type has the diameter of 40-80 nm with predominant population at size of ca. 50 nm, and the other population has a diameter less than 20 nm, which may correspondent to the size of fullerene peptides itself. In contrast, the size distribution of 26 large aggregates is much polydisperse, ranging from 50-150 nm with no obvious dominant population for large aggregates, while smaller aggregates has similar size as Baa-Lys(FITC)-Lys8-OH. FIGS. 10a and 10b show the vitreous ice cryo-TEM micrograph of the large aggregates (10a) and small aggregates (10b) formed by Baa-Lys(FITC)-NLS in PBS buffer (1 mg/mL at pH=7). The aggregate sizes from the two peptides seem to be consistent with the hydrophilicity of peptide chain as more hydrophilic sequence corresponds to smaller size (25), and vice versa (26).

[9] = system: HEK-293a cells; assay: Cellular uptake by fluorescence microscopy; format: cell-based, human; settings: for cellular uptake / localization by fluorescence: 40 μM, 24 hrs, 37° C.; for Active Cellular Uptake: HEK-293a cells
Method: Cellular uptake. An immortalized human embryonic kidney epithelial cancer cell line was used in initial cellular uptake studies. HEK-293a cells were cultured in RMPI 1640 medium supplemented with 10% fetal bovine serum (FBS) in 5% CO2 and 37° C. humidified incubator. The medium was supplemented with penicillin (100 U·mL^−1), streptomycin (100 μg/mL), and glutamine (2 mM). For experiments and microscopy, cells were seeded at 1×10^4 cells per well on 6-well plates and grown for two days in RPMI supplemented with 10%. Cells were incubated with each peptide (40 μM) for 24 hrs at 37° C. After treatment, the cells were washed with RPMI supplemented with 10% FBS and phosphate buffered saline (PBS, 10 mM). Fluorescence was observed by a fluorescent microscope equipped with FITC and red filters.

[10] = system: HEK-293a cells; assay: Cellular uptake by fluorescence microscopy; format: cell-based, human

- IC50 [1]: 480 µM
Molecule: Cc1c(C)c2c(c(C)c1O)CCC(C)(C(=O)O)O2 (stereo not drawn) [Trolox, reference compound]

- aggregate size, major (or single) component [2]: ca. 200 nm
- aggregate distribution, single broad aggregate ([2]; 0.25-2.0 mg/mL): 50-350 nm
Molecule: Baa-(Lys)8-OH [Peptide 24]

Molecule: Baa-Arg-Gln-Ile-Lys-Ile-Trp-Phe-Gln-Asn-Arg-Arg-Met-Lys-Trp-Lys-Lys-OH (Baa-RQIKIWFQNRRMKWKK-OH; reading uncertain) [Peptide 29]
- inhibition of cell growth [3]: significant inhibition effect at 31.4 μM
- inhibition of cell growth [4]: significant inhibition for solutions above 8-14 μM

- IC50 [1]: 89 µM
Molecule: Baa-Glu-Glu-Glu-Glu-Gly-Gly-Gly-Ser-OH ({Baa″}-EEEEGGGS-OH) [Peptide 27]
- antioxidant activity relative to Trolox ([1]; molar, from IC50): ca. five fold
- inhibition of cell growth [3]: no cellular inhibition up to 57 μM
- inhibition of cell growth [4]: significant inhibition for solutions above 8-14 μM

Molecule: Baa-Glu-Ile-Ala-Gln-Leu-Glu-Tyr-Glu-Ile-Ser-Gln-Leu-Glu-Gln-Glu-Ile-Gln-Ala-Leu-Glu-Ser-NH2 ({Baa″}-EIAQLEYEISQLEQEIQALES-NH2) [Peptide 23]
- Secondary structure with decreasing pH [5]: α-helix coiled
- Appearance [5]: fibers
- inhibition of cell growth [3]: no obvious inhibition
- inhibition of cell growth [4]: no obvious inhibition
- inhibition of cell growth ([6]; IMR32, 100 μg·mL^−1 (29.4 μM)): significant inhibition

Molecule: Baa-Glu-Ile-Ala-Gln-Leu-Glu-Tyr-Glu-Ile-Ser-Gln-Leu-Glu-Gln-NH2 ({Baa″}-EIAQLEYEISQLEQ-NH2) [Peptide 22]
- Secondary structure with decreasing pH [5]: random coil → α-helix
- Appearance [5]: aggregates
- diameter of non-fibrous particles [5]: approximately 20 nm
- inhibition of cell growth [3]: no obvious inhibition
- inhibition of cell growth [4]: no obvious inhibition
- inhibition of cell growth ([6]; IMR32, up to 37 μM): no inhibition

- degradation of the sample in bovine plasma [7]: No degradation
- aggregate size, minor smaller component [2]: ca. 10 nm
- fraction of major aggregate component [2]: ca. 60%
- third larger aggregate size at high concentration ([2]; 2.0 mg/mL (25), above 1.0 mg/mL (26)): ca. 1500 nm
- distribution of minor smaller aggregate ([2]; 0.125-1.0 mg/mL): 5-20 nm
- aggregate size, major (or single) component [2]: ca. 180 nm
- average aggregate size (large aggregates) [8]: 40-80 nm
- diameter of small aggregate population [8]: less than 20 nm
- predominant population size of large aggregates [8]: ca. 50 nm
Molecule: Baa-Lys(FITC)-(Lys)8-OH [Peptide 25]
- cellular uptake / localization by fluorescence ([9]; listed as H-Baa-Lys(FITC)-Lys8-OH): strong green fluorescence within the cytoplasm; also recorded: accumulates in the cytoplasm
- Active Cellular Uptake [9]: Yes
- cellular uptake at 4° C. [10]: no cellular uptake activity

Molecule: Baa-Lys(FITC)-Glu-Glu-Glu-Glu-Gly-Gly-Gly-Ser-OH ({Baa″-Lys(FITC)}-EEEEGGGS-OH) [Peptide 28]
- uptake intensity in comparison with the cationic fullerene peptides ([9]; same concentration, cell line not restated): greatly reduced

- Secondary structure with decreasing pH [5]: β-sheet
- Appearance [5]: fibers^a
- diameter of non-fibrous particles [5]: 8-10 nm
Molecule: Glu-Ile-Ala-Gln-Leu-Glu-Baa-Glu-Ile-Ser-Gln-Leu-Glu-Gln-NH2 [Peptide 21]

Molecule: Glu-Ile-Ala-Gln-Leu-Glu-Tyr-Glu-Ile-Ser-Gln-Leu-Glu-Gln-Gln-Glu-Ile-Gln-Ala-Leu-Glu-Ser-NH2 (EIAQLEYEISQLEQQEIQALES-NH2) [Peptide 3HP, parent model heptad peptide without Baa, reference compound]
- Secondary structure with decreasing pH [5]: random coil → α-helix
- Appearance [5]: fibers

Molecule: Glu-Ile-Ala-Gln-Leu-Glu-Tyr-Glu-Ile-Ser-Gln-Leu-Glu-Gln-NH2 (EIAQLEYEISQLEQ-NH2) [Peptide 2HP, parent model heptad peptide without Baa, reference compound]
- Secondary structure with decreasing pH [5]: random coil → α-helix → β-sheet
- Appearance [5]: fibers

Molecule: Lys(FITC)-(Lys)8-OH [reference compound]
- cellular uptake / localization by fluorescence [9]: no uptake
- Active Cellular Uptake [9]: No
